Active and inactive are the calls of the source.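 The calls were made as follows: active = EC50 at or below 10 µM; inactive = EC50 above 10 µM.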
Test system: CHO NFAT-BLA reporter, FRET beta-lactamase activation counterscreen
Assay: NFAT-BLA reporter activators, potency curves, dose response, counter-screen for GALR2 agonist project, CHO NFAT-bla cells, FRET readout (AID 1228)

Row | SMILES | EC50
1 | Cc1cc(C)c2nc(NNC(=O)c3ccc(S(=O)(=O)N4CCCC(C)C4)cc3)sc2c1 (stereo unspecified) | > 55.7 µM (inactive)
2 | C=CCNC(=O)/C(C#N)=C/c1cn(-c2ccccc2)nc1-c1cccs1 | > 55.7 µM (inactive)
3 | CCCOc1ccc(C(=O)C(CCC(CNCC)C(=O)c2ccc(OCCC)cc2)CNCC)cc1 (stereo unspecified) | > 55.7 µM (inactive)
4 | Cc1ccc2nsnc2c1NC(=O)c1ccc(-c2cc(Cl)ccc2Cl)o1 | > 55.7 µM (inactive)
5 | Cc1cccc2sc(NNC(=O)c3ccc(S(=O)(=O)N4CC(C)CC(C)C4)cc3)nc12 (stereo unspecified) | > 55.7 µM (inactive)
6 | CCOc1ccc(Br)cc1C(=O)Nc1ccc(C(=O)NCC(C)C)cc1 | > 55.7 µM (inactive)
7 | COc1cc2c3cc1Oc1cc(ccc1O)C[C@@H]1c4c(cc(OC)c(O)c4Oc4ccc(cc4)C[C@H]3N(C)CC2)CCN1C | > 55.7 µM (inactive)
8 | Cc1c2ccncc2c(C)c2c1[nH]c1ccccc12 | > 55.7 µM (inactive)
9 | CC1=C/C(=N\OS(=O)(=O)c2ccccc2)C(C(C)C)=CC1=O | > 55.7 µM (inactive)
10 | Cc1cc(C)c2nc(NNC(=O)c3ccc(S(=O)(=O)N4CC(C)CC(C)C4)cc3)sc2c1 (stereo unspecified) | > 55.7 µM (inactive)
11 | Cc1cccc2sc(NNC(=O)c3ccc(S(=O)(=O)N4CCCC(C)C4)cc3)nc12 (stereo unspecified) | > 55.7 µM (inactive)
